According to BindingDB's records for doi:10.3109/14756360903049042 (Medical University of Bialystok, 2010):

Columns and labels:
Serine protease 1 = Serine protease 1 (Homo sapiens, UniProt P07477); test: Amidolytic Activity Assay (Trypsin); details: pH 7.5
Method: Determination of amidolytic activity was performed as described previously [Okada et al., Chem. Pharm. Bull., 36:1289-1297]. Detailed description of the method is given below. […]

Plasminogen = Plasminogen (Homo sapiens, UniProt P00747); test: Amidolytic Activity Assay (Plasmin); details: pH 7.4
Method: Determination of amidolytic activity was performed as described previously [Okada et al., Chem. Pharm. Bull., 36:1289-1297]. Detailed description of the method is given below. To 0.2 cm3 of examined compound (1−11; 0.15 M NaCl as control), buffer, and 0.1 cm^3 of enzyme solution was added: tris buffer−0.5 cm^3 (pH = 7.4); enzyme: plasmin (0.4 unit/cm^3); synthetic substrate: S-2251 (0.2 cm^3, 3 mM/dm^3).

Chain of Serine protease 1 (P07477 whole entry): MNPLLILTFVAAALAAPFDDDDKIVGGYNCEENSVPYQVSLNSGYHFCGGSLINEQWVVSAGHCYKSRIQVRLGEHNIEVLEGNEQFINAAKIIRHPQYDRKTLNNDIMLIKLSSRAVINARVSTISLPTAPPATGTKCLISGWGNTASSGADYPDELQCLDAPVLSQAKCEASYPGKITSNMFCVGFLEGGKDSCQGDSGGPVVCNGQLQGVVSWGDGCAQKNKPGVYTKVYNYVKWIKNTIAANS
Chain of Plasminogen (P00747 97-580 limits assumed): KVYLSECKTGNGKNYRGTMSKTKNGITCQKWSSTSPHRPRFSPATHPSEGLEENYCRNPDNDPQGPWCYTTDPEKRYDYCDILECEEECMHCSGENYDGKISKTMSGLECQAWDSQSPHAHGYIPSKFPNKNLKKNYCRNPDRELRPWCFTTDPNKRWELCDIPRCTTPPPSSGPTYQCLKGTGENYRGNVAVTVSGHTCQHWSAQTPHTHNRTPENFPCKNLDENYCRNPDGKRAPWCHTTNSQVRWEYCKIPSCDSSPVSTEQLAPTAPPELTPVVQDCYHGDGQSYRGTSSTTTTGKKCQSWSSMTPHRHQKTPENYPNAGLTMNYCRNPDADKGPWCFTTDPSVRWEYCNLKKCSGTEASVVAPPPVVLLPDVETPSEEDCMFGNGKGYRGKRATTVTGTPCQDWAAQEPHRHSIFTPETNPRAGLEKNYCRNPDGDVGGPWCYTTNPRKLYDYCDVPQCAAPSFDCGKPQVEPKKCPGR
Chain of Plasminogen (P00747 581-810 limits assumed): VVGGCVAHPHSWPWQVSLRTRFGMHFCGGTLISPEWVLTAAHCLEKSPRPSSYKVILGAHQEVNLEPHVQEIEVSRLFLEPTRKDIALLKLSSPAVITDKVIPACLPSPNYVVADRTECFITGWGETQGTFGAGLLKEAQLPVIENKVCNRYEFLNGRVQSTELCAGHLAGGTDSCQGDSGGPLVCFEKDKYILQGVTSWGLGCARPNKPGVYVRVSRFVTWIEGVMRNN

Row | Structure (SMILES) | Ki (Serine protease 1) [µM] | Ki (Plasminogen) [µM]
1 | C[C@H](NC(=O)[C@H](N)CO)C(=O)N[C@@H](CCCNC(=N)N)C(=O)NCCCCCCN [H-D-Ser-Ala-Arg-NH-(CH2)6-NH2 (5)] | 2.5 | 181
2 | C[C@H](NC(=O)[C@H](N)CO)C(=O)N[C@@H](CCCNC(=N)N)C(=O)NCCCO [H-D-Ser-Ala-Arg-NH-(CH2)3-OH (10)] | 15 | 1090
3 | C[C@H](NC(=O)[C@H](N)CO)C(=O)N[C@@H](CCCNC(=N)N)C(=O)NCCCCCCCN [H-D-Ser-Ala-Arg-NH-(CH2)7-NH2 (6)] | 30 | 364
4 | C[C@H](NC(=O)[C@H](N)CO)C(=O)N[C@@H](CCCNC(=N)N)C(=O)NCCCCO [H-D-Ser-Ala-Arg-NH-(CH2)4-OH (11)] | 10 | 545
5 | C[C@H](NC(=O)[C@H](N)CO)C(=O)N[C@@H](CCCNC(=N)N)C(=O)NCCCCCCCCCN [H-D-Ser-Ala-Arg-NH-(CH2)9-NH2 (8)] | 5 | 90
6 | C[C@H](NC(=O)[C@H](N)CO)C(=O)N[C@@H](CCCNC(=N)N)C(=O)NCCCCCN [H-D-Ser-Ala-Arg-NH-(CH2)5-NH2 (4)] | – | 37
7 | C[C@H](NC(=O)[C@H](N)CO)C(=O)N[C@@H](CCCNC(=N)N)C(=O)NCCO [H-D-Ser-Ala-Arg-NH-(CH2)2-OH (9)] | – | 727
8 | C[C@H](NC(=O)[C@H](N)CO)C(=O)N[C@@H](CCCNC(=N)N)C(=O)NCCCCCCCCN [H-D-Ser-Ala-Arg-NH-(CH2)8-NH2 (7)] | 10 | –
